The nature of test [1]: MC4R antagonists, dose response, counter-screen for LGR2 antagonist project, cell-based, plate reader, cherry pick (AID 743444).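 Also: transfected HEK 293 cells stimulated with alpha-MSH peptide; potency of inhibitors of the alpha-MSH evoked signal.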 The format is functional. On the technique in general: The purpose of a counterscreen is to sort out artefacts and off-target activity.
The nature of test [2]: A549 cell cytotoxicity, dose response, cytotoxicity control, plate reader, cherry-pick, antagonist series (AID 743412). The format is functional, cell-based.
The nature of test [3]: HEK293 cell cytotoxicity, dose response, cytotoxicity control, plate reader, cherry-picked samples (AID 743446). The format is functional, cell-based.
Test [4] in a line: LGR2 antagonists, dose response, cell-based, HEK293, CRE-luciferase reporter, cherry pick (AID 743342). The class given is functional. For orientation: A reporter such as luciferase makes a cellular process visible.
Test [5] deals with Phospholipase D1 (Homo sapiens, UniProt Q13393). The test can be described thus: PLD1 Cellular Concentration Response Study. The class given is functional.
Phospholipase D1, sequence (Q13393 whole entry): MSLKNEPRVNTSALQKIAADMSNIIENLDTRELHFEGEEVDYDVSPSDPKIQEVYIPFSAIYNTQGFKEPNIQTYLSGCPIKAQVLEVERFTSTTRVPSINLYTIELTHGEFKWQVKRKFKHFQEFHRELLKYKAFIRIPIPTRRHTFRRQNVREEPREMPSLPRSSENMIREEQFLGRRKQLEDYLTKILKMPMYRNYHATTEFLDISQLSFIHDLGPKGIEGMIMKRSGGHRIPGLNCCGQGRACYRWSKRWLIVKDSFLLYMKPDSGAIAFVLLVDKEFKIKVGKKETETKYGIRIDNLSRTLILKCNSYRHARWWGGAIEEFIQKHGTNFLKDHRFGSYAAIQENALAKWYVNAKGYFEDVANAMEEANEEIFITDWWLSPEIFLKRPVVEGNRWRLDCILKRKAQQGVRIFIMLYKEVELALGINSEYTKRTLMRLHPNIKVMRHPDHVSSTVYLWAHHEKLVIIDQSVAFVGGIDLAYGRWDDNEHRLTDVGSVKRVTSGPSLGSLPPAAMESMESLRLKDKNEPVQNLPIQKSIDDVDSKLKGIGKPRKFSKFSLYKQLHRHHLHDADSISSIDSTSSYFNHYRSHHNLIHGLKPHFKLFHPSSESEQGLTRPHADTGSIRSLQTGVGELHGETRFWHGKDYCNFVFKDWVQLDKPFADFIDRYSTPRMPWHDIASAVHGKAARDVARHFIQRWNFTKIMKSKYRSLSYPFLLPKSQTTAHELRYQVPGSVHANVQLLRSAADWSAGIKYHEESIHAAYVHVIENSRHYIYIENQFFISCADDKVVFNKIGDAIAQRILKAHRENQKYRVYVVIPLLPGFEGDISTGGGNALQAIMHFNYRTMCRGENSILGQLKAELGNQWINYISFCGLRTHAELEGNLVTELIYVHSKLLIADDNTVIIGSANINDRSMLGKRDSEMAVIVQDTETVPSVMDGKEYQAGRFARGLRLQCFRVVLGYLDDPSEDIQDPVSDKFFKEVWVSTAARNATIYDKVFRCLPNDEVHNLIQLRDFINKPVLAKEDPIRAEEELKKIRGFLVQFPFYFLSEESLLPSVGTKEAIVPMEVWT
In test [6] the target is Phospholipase D2 (Homo sapiens, UniProt O14939). The test can be described thus: PLD2 Cellular Concentration Response Study. The format is functional.
Phospholipase D2, sequence (O14939 whole entry): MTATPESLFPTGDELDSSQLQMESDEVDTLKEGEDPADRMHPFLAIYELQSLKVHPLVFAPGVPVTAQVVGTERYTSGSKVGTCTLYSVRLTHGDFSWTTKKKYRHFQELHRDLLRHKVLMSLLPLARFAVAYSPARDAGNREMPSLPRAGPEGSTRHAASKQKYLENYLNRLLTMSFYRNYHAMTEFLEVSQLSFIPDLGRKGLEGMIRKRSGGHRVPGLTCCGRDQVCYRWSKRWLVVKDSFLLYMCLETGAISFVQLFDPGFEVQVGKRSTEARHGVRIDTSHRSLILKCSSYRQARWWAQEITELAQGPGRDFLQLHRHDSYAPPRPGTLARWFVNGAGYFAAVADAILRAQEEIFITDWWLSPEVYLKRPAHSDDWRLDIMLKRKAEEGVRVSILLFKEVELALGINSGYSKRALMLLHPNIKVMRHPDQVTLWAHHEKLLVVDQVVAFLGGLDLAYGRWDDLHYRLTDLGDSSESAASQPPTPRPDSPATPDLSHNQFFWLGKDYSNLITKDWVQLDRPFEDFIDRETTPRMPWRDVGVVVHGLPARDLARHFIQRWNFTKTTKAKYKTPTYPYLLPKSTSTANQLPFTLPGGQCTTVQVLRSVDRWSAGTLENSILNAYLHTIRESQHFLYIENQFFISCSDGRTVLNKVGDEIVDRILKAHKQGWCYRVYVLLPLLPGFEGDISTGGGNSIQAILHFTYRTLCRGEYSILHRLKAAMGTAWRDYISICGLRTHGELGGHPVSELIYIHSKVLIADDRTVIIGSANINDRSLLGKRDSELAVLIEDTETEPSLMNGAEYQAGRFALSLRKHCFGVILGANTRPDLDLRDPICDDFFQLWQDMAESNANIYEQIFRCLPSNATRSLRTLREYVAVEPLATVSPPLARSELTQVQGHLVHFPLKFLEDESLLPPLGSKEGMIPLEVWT
Test [7] can be described thus: HepG2 cell cytotoxicity, dose response, cytotoxicity control, plate reader, dry powder, set 6 (AID 743311). The format is functional, cell-based.
A short description of test [8]: cells. As to conditions: HEK293.
The nature of test [9]: P. falciparum Dd2 growth inhibitors, dose response, SYBR Green, dry powder samples, set 9 (AID 1159568). The format is functional, cell-based.
Test [10] has as its target Paired box protein Pax-8 (Homo sapiens, UniProt Q06710). The test is described as follows: inhibitors of PAX8-driven TPO luciferase reporter, dose response, RMG-I cells, cherry-pick (AID 687027).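 Also: luciferase reporter driven by Pax8 target thyroperoxidase promoter measured by SteadyGlo luminescence.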 The class given is functional, cell-based.
The nature of test [11]: NIH:OVCAR-3 ovarian cancer cell cytotoxicity, dose response, PAX8 inhibitor project, plate reader, dry powder samples (AID 743044). The class given is functional, cell-based.
A short description of test [12]: growth inhibition of replicating M. tuberculosis, dose response, counter-screen, dry powder, IC90 (AID 651617). The format is functional. As to conditions: Mycobacterium tuberculosis.
The nature of test [13]: inhibitors of non-replicating M. tuberculosis, dose response, luciferase, dry powder (AID 651620). The format is functional. As to conditions: Mycobacterium tuberculosis.
A short description of test [14]: inhibitors of non-replicating M. tuberculosis, dose response, luciferase, dry powder (AID 651619). The format is functional. As to conditions: Mycobacterium tuberculosis.
Test [15] can be described thus: cells. As to conditions: HEK293. This is another data set of the same source.
For test [16], the target named is T1, Corticotropin-releasing factor receptor 2/Corticotropin-releasing factor-binding protein (Homo sapiens, UniProt P24387+Q13324).
T1 sequence (Q13324 whole entry): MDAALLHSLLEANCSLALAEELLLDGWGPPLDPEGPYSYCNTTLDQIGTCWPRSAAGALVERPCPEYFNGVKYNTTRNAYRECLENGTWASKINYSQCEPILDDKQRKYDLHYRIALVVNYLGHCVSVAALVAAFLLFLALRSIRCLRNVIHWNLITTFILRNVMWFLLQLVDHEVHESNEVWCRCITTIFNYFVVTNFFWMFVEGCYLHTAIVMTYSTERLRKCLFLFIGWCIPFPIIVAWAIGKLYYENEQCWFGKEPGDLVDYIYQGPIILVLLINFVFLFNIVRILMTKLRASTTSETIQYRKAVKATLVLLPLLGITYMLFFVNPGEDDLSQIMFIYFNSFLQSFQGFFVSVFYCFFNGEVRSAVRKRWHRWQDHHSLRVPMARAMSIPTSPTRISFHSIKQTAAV
T1 sequence (P24387 whole entry): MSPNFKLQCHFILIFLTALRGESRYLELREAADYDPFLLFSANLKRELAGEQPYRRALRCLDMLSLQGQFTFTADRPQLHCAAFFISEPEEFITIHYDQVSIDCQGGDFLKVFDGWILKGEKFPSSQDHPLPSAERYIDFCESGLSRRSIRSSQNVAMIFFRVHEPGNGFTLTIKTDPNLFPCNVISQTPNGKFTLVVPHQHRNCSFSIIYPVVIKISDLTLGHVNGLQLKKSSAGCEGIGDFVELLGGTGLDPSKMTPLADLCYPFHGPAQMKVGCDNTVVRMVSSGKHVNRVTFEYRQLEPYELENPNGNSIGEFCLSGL
The test can be described thus: activators of CRF receptor 2 with binding protein – uHTS hits, confirmation (AID 602473). As to conditions: read-out: EC50_Mean. The format is functional.

The target of test [17] is T1, Corticotropin-releasing factor receptor 2/Corticotropin-releasing factor-binding protein. The test can be described thus: Dose Response confirmation of uHTS hits for small molecule antagonists of the CRF-binding protein and CRF-R2 receptor complex. The format is functional. As to conditions: read-out: IC50_Mean.
Test [18] is described as follows: HeLa 4N DNA content increase, dose response, cell-based, IC50 (AID 1117351). The class given is functional.
Test [19] is described as follows: HeLa 2N DNA content increase, dose response, cell-based, IC50 (AID 1117349). The format is functional.
Test [20] in a line: cells.
Test [21] concerns the target Oxysterols receptor LXR-beta (Homo sapiens, UniProt P55055). The format is functional, cell-based.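 Also: Cell-based luminescence dose-response assay of agonist activity at LXR, run as a confirmatory counterscreen to a daf-12 agonist screen; HEK293 cells with Gal4-LXR fusion and GAL4-driven luciferase reporter; agonist potency from rising luciferase signal of a Gal4-LXR reporter.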
Test [22] deals with T2, Fibrinogen beta chain (Homo sapiens, UniProt P02675). The test can be described thus: Fluorescence polarization-based biochemical high throughput dose response assay to identify inhibitors that disrupt the binding of a cyclic peptide (Tn6) to the fibrin proteolytic product D-Dimer and fragment E complex [DD(E )]. (Polarisation of emitted light reports the rotation of a fluorescent probe.)
T2 sequence (P02675 whole entry, the tested form may be a part): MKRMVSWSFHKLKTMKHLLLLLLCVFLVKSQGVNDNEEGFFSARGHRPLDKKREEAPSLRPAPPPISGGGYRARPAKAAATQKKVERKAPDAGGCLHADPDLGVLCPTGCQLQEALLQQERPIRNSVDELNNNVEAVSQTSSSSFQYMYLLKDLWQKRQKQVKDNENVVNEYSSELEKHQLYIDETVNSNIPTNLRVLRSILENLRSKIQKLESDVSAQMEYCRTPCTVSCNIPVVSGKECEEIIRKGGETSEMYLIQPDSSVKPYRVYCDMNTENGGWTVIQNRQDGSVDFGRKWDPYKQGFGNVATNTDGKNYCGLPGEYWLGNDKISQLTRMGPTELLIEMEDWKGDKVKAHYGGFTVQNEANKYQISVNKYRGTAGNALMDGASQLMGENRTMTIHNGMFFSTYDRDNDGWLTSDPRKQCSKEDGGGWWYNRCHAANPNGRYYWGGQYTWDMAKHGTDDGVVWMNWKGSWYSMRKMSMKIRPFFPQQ

In test [23] the target is T2, Fibrinogen beta chain. The test is described as follows: Fluorescence polarization-based biochemical high throughput dose response assay to identify inhibitors that disrupt the binding of a cyclic peptide (Tn7) to the fibrin proteolytic product D-Dimer and fragment E complex [DD(E )].

Active and inactive are the calls of the source. Bounds are passed on as bounds.

By AC50 is commonly meant the midpoint of the concentration-response curve, whichever way the signal moves. One may read the IC90 as the point of the concentration-response curve where the effect stands at 90%.

Paired box protein Pax-8, sequence (Q06710 whole entry): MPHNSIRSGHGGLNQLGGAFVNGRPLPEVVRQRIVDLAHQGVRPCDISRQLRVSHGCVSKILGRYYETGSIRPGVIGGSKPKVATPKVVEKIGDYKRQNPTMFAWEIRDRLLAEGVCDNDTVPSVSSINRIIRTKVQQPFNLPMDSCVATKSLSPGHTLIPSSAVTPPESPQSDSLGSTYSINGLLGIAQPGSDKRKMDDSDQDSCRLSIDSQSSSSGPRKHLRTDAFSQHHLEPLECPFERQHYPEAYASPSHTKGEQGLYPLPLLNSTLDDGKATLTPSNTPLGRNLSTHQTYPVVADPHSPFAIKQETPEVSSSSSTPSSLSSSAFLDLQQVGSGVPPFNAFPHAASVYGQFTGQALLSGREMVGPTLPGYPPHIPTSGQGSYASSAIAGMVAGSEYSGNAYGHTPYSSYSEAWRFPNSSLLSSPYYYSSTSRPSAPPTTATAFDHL
Oxysterols receptor LXR-beta, sequence (P55055 whole entry, the tested form may be a part): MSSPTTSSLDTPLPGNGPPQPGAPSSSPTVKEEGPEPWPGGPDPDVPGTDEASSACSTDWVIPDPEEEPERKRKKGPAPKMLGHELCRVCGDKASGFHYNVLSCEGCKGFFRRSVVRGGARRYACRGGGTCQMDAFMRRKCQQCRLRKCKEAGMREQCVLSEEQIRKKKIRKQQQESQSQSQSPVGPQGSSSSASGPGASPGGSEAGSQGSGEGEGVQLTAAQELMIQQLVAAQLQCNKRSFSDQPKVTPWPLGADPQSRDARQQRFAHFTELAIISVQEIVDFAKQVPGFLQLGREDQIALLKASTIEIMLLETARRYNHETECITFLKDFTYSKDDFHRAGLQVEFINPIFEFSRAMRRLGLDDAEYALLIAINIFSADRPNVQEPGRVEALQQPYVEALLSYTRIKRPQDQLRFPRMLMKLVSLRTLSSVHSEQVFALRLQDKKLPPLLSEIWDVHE

In the case of `COc1ccc(S(=O)(=O)N(C)C[C@@H]2OCCCC[C@H](C)Oc3ccc(NS(=O)(=O)c4ccc(F)cc4)cc3C(=O)N([C@@H](C)CO)C[C@@H]2C)cc1`, the AC50 in [1] is 42.7 µM (active); in test [2], 26 µM (active); in test [3], > 52 µM (inactive); in test [4], 58.8 µM (active).
Turning to `O=C(NCCN1CCC2(CC1)C(=O)NCN2CC1CC1)c1ccc2ccccc2c1`, the IC50 was 20 µM (active) in test [5] and 2.05 µM (active) in test [6].
On to `Cc1ccc(C(C)C)c(OCCn2c(N)nc3ccccc32)c1`, for which the results for the AC50 in test [7] and in test [8] were 4.5 µM (active) and 19.1 µM (active), respectively.
In the case of `C(=C\c1ccc([C@H]2[C@@H]3CN(Cc4nccs4)C[C@H]2N3)cc1)/c1ccccc1`, in test [9], the AC50 was 11.2 µM (active).
As to `Cc1cccc(S(=O)(=O)N2CC[C@@H]3[C@H](CO)N(C)c4ccc(-c5ccc(C#N)cc5)cc4[C@@H]32)c1`, the AC50 was 10.1 µM (active) in test [10] and 67.7 µM (active) in [11].
Consider `[N-]=[N+]=NCCOCCNC(=O)CCCOc1ccc(CSc2nnc(-c3ccc(F)cc3)o2)nc1`, for which the IC90 was 250 µM (active) in test [12], 16 µM (active) in test [13] and 16 µM (active) in test [14].
`CNC(=O)c1ccc(NC(=O)c2cccc(C(F)(F)F)c2)cc1`: the AC50 in test [15] was 49.8 µM (active).
Regarding `Nc1nc(F)nc2c1ncn2[C@@H]1O[C@H](CO)[C@@H](O)[C@@H]1O` [FLUDARABINE], the EC50 in test [16] was > 53 µM (inactive). Further, the IC50 was > 47.1 µM (inactive) in [17], > 10 µM (inactive) in [18] and > 10 µM (inactive) in test [19].
`CCOC(=O)c1s/c(=N\C(=O)c2cccs2)n(C)c1C`: the EC50 in test [20] and in [21] was > 67.5 µM (inactive) in each case.
In the case of `C#CCNc1ccc(C(=O)OCC)cc1`, the IC50 in [22] is > 83.1 µM (inactive); in test [23], > 27.7 µM (inactive).

Values taken from ChEMBL document CHEMBL1201862, “PubChem BioAssay data set” (2004).
